Here are results for four molecules from patent US5543496A, “Cyclic bradykinin antagonist peptides” (Scios Nova Inc., priority 1994, dated 1996).

Broadly, the Ki is the dissociation constant of the complex between target and ligand, obtained from inhibition or displacement. A low value points to higher affinity.

The conditions of series [1]: anesthetized rat, intra-aortic vs intravenous administration; cited from earlier work.
The conditions of series [2]: cited from earlier work.
In series [3] the target is T1, bradykinin receptors on intestinal (ileal longitudinal) smooth muscle (Cavia porcellus, UniProt O70526).
T1 construct: The longitudinal muscle was separated from the underlying circular muscle; from tissue; host or cells: guinea pig ileal longitudinal smooth muscle strips in tissue bath
T1 sequence (O70526 1-372): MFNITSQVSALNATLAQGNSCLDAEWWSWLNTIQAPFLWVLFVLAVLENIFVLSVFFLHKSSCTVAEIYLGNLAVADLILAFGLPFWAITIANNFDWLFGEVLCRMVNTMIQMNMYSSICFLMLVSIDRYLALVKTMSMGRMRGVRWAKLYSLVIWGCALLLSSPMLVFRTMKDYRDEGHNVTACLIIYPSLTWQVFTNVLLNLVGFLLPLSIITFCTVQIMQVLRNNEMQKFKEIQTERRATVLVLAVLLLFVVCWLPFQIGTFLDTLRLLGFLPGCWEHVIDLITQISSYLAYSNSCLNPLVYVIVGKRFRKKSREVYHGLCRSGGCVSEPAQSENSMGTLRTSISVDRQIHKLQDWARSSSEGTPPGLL
Description: Bradykinin antagonist activity on guinea pig ileal longitudinal smooth muscle (Schild analysis). Format: cell-based. The conditions noted are these: antagonism of bradykinin-induced contraction, 5 min exposure, read-out: pA2 (converted). As to the method:
Guinea pig intestine was removed and placed in a Petri dish containing Tyrodes solution and cut into 3-4 cm segments. The longitudinal muscle was separated from the underlying circular muscle using a cotton applicator (Paton and Zar, J. Physiol., (1968), 194:13. Muscle strips were connected to isometric force-displacement transducers (Grass or Gould) coupled to a physiograph and placed in tissue baths containing Tyrode's solution at 37° C. Each preparation was suspended under a resting tension of 2 g.
After equilibration of the tissues, appropriate volumes of bradykinin solutions were cumulatively added to the 10 mL tissue baths to increase the concentration of bradykinin in the bath step-by-step without washing out after each single dose. Higher concentrations were added only after the preceding contraction had reached a steady value. […] Antagonism of badykinin responses in the presence of antagonist were determined by repeating the cumulative addition procedure for bradykinin after the tissue has been exposed to the antagonist for 5 minutes. Three or four different concentrations of antagonist are studied sequentially in the same preparations. Responses were expressed as a percentage of the maximum contraction elicited by bradykinin in the absence of antagonist. pA2 values were calculated by Schild analysis.

The next series concerns the target T2, bradykinin receptor (Cavia porcellus, UniProt O70526).
T2 construct: from tissue; host or cells: guinea pig terminal ileum, washed membrane homogenate
T2 sequence (O70526 1-372): T1 sequence (O70526 1-372)
Description: 3H-Bradykinin binding assay, guinea pig ileum membranes. The conditions noted are these: displacement of 3H-bradykinin, terminal ileum homogenate of male Hartley guinea pigs, 90 min ambient temperature. On the procedure: Binding of ^3 H-Bradykinin was performed using the method of D. C. Manning, R. Vavrek, J. M. Stewart, and S. H. Snyder, J. Pharmacol. Exp. Ther., (1986), 237, 504. The tissues used in the binding assay were terminal ileum from male Hartley guinea pigs (150-350 g). After dissection, tissues were placed in 20 vol of ice-cold buffer A (25 mM TES containing 0.2 g/L of 1,10-phenanthroline adjusted of pH 6.8 with ammonium hydroxide) and homogenized using a Ploytron Tissumizer at setting 6 for 15 sec. The homogenate was centrifuged at 50,000×g for 10 min, the supernatant discarded, and the pellet resuspended in ice-cold buffer A by homogenization with the Polytron. Each tissue was homogenized and centrifuged three times. The final pellet was resuspended in buffer A containing bovine serum albumin (1 g/L) and Bacitracin (0.14 g/L) to a final volume of 170 mL/g of the original tissue weight. […] Filters were dissolved in Ready-Safe Fluor (Beckman) for at least 90 min before quantitation by liquid scintillation spectrometry. Kd values were determined using saturation binding and analysis by EBDA (G. A. MacPherson, J. Pharmacol. Methods, (1985), 213), followed by LIGAND (P. J. Munson, D. Rodbard, Anal. Biochem., (1980), 220). Ki values were determined using competitive analysis followed by EBDA and LIGAND. […]
On the technique in general: Displacement assays read how much labelled ligand stays bound in the presence of the test substance.

Positions of bridges follow the written chain, without caps; N, C: chain ends. Non-standard residues stand in square brackets, D forms with d. Residues, ends and D or L forms follow the SMILES beside them. Oic = O=C(O)[C@@H]1C[C@@H]2CCCC[C@@H]2N1; dTic = O=C(O)[C@H]1Cc2ccccc2CN1

Take “Bradykinin (RPPGFSPFR; Bradykinin; UniProt P01042 381-389, looked up) [nonapeptide hormone, native agonist]”: the “destruction on a single passage through the pulmonary circulation” value in series [1] is 98-99%. The “half life in the systemic circulation” value in series [2] is recorded as “less than 30 seconds”.
For the molecule `N=C(N)NCCC[C@@H](N)C(=O)N[C@@H](CCCNC(=N)N)C(=O)N[C@H]1CSSC[C@@H](C(=O)N[C@@H](CO)C(=O)N2Cc3ccccc3C[C@@H]2C(=O)N2[C@H](C(=O)N[C@@H](CCCNC(=N)N)C(=O)O)C[C@@H]3CCCC[C@@H]32)NC(=O)CNC(=O)[C@@H]2CCCN2C1=O` [drawing 26] (H-[dR]RCPGCS[dTic][Oic]R-OH; disulfide 3-6), the Kb in series [3] was 251 nM.
As for `N=C(N)NCCC[C@@H](N)C(=O)N[C@@H](CCCNC(=N)N)C(=O)N[C@H]1CSSC[C@@H](C(=O)N[C@@H](CO)C(=O)N2Cc3ccccc3C[C@@H]2C(=O)N2[C@H](C(=O)N[C@@H](CCCNC(=N)N)C(=O)O)C[C@@H]3CCCC[C@@H]32)NC(=O)CNC(=O)[C@@H]2CCCN2C1=O` [drawing 23] (H-[dR]RCPGCS[dTic][Oic]R-OH; disulfide 3-6), at bradykinin receptor, the Ki was 1.5 ± 0.1 nM.
In the case of `NC(N)=NCCC[C@@H](N)C(=O)N[C@@H](CCCN=C(N)N)C(=O)N[C@H]1CSSC[C@@H](C(=O)N2Cc3ccccc3C[C@@H]2C(=O)N2[C@H](C(=O)N[C@@H](CCCN=C(N)N)C(=O)O)C[C@@H]3CCCC[C@@H]32)NC(=O)[C@H](Cc2ccccc2)NC(=O)CNC(=O)[C@@H]2CCCN2C1=O` (H-[dR]RCPGFC[dTic][Oic]R-OH; disulfide 3-7), the Ki at bradykinin receptor was found to be 14.8 ± 0.34 nM.
